What was measured:
Type in all cases: functional
[1] = Juvenile hormone mimic activity in Spodoptera frugiperda (fall armyworm) Sf21 cells assessed as cell number at 3.7 x 10 '-10 M after 5 days by trypan blue exclusion assay
[2] = Juvenile hormone mimic activity in Spodoptera frugiperda (fall armyworm) Sf21 cells assessed as cell number at 3.7 x 10 '-9 M after 5 days by trypan blue exclusion assay
[3] = Juvenile hormone mimic activity in Spodoptera frugiperda (fall armyworm) Sf21 cells assessed as cell number at 3.7 x 10 '-8 M after 5 days by trypan blue exclusion assay
[4] = Juvenile hormone mimic activity in Spodoptera frugiperda (fall armyworm) Sf21 cells assessed as cell number at 3.7 x 10 '-7 M after 5 days by trypan blue exclusion assay
[5] = Juvenile hormone mimic activity in Spodoptera frugiperda (fall armyworm) Sf21 cells assessed as cell number at 3.7 x 10 '-11 M after 5 days by trypan blue exclusion assay
[6] = Juvenile hormone mimic activity in Spodoptera frugiperda (fall armyworm) Sf21 cells assessed as cell number at 3.7 x 10 '-12 M after 5 days by trypan blue exclusion assay

Row | Structure (SMILES) | Activity [1] | Activity [2] | Activity [3] | Activity [4] | Activity [5] | Activity [6]
1 | CC(C)=CCC/C(C)=C/c1cncn1Cc1ccccc1 | 5.5% | 4.9% | 4.2% | 3.3% | 5.5% | –
2 | COC(C)(C)CCC[C@H](C)C/C=C/C(C)=C/C(=O)OC(C)C [METHOPRENE] | 6.9% | 6.5% | 6% | 6% | 6.7% | 6.4%
3 | CCc1ccc(C(=O)NN(C(=O)c2cc(C)cc(C)c2)C(C)(C)C)cc1 [TEBUFENOZIDE] | 5.6% | 5.7% | 5.1% | 4.3% | 5.4% | –

Source: ChEMBL document CHEMBL3045878, “Effect of Insect Hormone Related Compounds on the Growth of Insect Cells” (1997)
